In patent publication US6858631B1, “Polymorphic, amorphous and hydrated forms of 5-chloro-3-(4-methanesulfonylphenyl)-6′-methyl-[2,3′]bipyridinyl” (Merck & Co., Inc., priority 1999, dated 2005):

Experiments:
[1] = Relative solubility of polymorphic forms; type: physicochemical; settings: at temperatures below 45° C.
Experimental: (§1) Forms I and IV are enantiotropic with Form IV converting to Form I at temperatures greater than 45° C. when in contact with organic solvents.

[2] = Relative thermodynamic stability and interconversion of polymorphic forms; type: physicochemical
Experimental: as §1

SMILES: Cc1ccc(-c2ncc(Cl)cc2-c2ccc(S(C)(=O)=O)cc2)cn1 [Form IV, 5-chloro-3-(4-methanesulfonylphenyl)-6′-methyl-[2,3′]bipyridinyl]
- solubility relative to Form I [1]: slightly less soluble
- stability relative to Form I ([2]; at temperatures below 45° C.): slightly more stable
- temperature at which Form IV converts to Form I (enantiotropic) ([2]; in contact with organic solvents): greater than 45 °C
